Experimental findings from US20110150774A1, “SCREENING FOR MODULATORS OF CES1 AND/OR CES3 FOR THE TREATMENT OF ACNE, OF SEBORRHOEIC DERMATITIS OR OF HYPERSEBORRHOEA” (GALDERMA RESEARCH & DEVELOPMENT, priority 2008, published 2011) are described below.

Common to all, as to type: in vivo
One test has as its system CES1. As to the kind of experiment: CES1 gene expression in rat sebaceous gland (epidermal split) after topical PPARgamma agonist, real-time PCR. The note with it: topical 1% in acetone, female FUZZY rat, mRNA standardized to 18S, versus carrier group; for CES1 Relative induction - kinetics (hours): 0: 0 hours; for CES1 Relative induction - kinetics (hours): 8: 8 hours; for CES1 Relative induction - kinetics (hours): 24: 24 hours; for CES1 Relative induction - kinetics (hours): 48: 48 hours; for CES1 Relative induction - kinetics (hours): 96: 96 hours. The source says:
(§1) Materials and methods: • Animals: Species: rat • Strain: Ico:HSd:FUZZY-fz • Gender: female • Age: 10 weeks • Number per batch: 40 (8 animals per group) • Treatment: Route of administration: topical • Compound/batch: PPARgamma agonists: • A: 5-{4-[2-(methylpyridin-2-ylamino)ethoxy]benzyl}thiazolidine-2,4-dione • B: 2-(methoxyethoxymethoxy)naphthalene-2-carboxylic acid [4′-(2,4-dioxothiazolidin-5-ylmethyl)biphenyl-3-ylmethyl]methylamide […] • C: (S)-2-ethoxy-3-{4-[6-(3-heptyl-1-methylureido)pyridin-2-yl]phenyl}propionic acid • Doses: 1% • Carrier: acetone (001) • Duration: 96 hours Method of evaluation: The animals are weighed at the beginning and at the end of the study. Skin biopsies are taken (6 samples of skin excised per rat) in order to analyze the expression of the genes (RNA extraction, reverse transcriptase and real-time PCR). The samples are stored at 4° C. overnight before incubation in 1 M sodium bromide (NaBr) for 2 hours at 37° C. After incubation, the samples are separated into epidermis or dermis. The epidermal samples are stored at 20° C. Under these conditions, the sebaceous glands are in the epidermal split. PCRs are carried out, beginning with the cDNAs originating from the epidermal splits containing sebaceous glands from control rats or rats treated with a PPARγ agonist: the mRNA is extracted using a column and quantified. The quality of the mRNAs is measured and is represented by the 18S/28S ratio. The results are standardized with respect to 18S, expressed as relative induction versus untreated animals (carrier group). The statistical analysis is obtained using internal software based on a modified Monte Carlo statistical analysis.
In general terms: Real-time PCR tracks product formation cycle by cycle.

The subject of test [1] is CES3. As to the kind of experiment: CES3 gene expression in rat sebaceous gland (epidermal split) after topical PPARgamma agonist, real-time PCR. The settings on record: topical 1% in acetone, female FUZZY rat, mRNA standardized to 18S, versus carrier group; for CES3 Relative induction - kinetics (hours): 0: 0 hours; for CES3 Relative induction - kinetics (hours): 8: 8 hours; for CES3 Relative induction - kinetics (hours): 24: 24 hours; for CES3 Relative induction - kinetics (hours): 48: 48 hours; for CES3 Relative induction - kinetics (hours): 96: 96 hours.
From the text: as §1, with “Ico:Hsd FUZZY-fz” for “Ico:HSd:FUZZY-fz”

For test [2], the system named is CES3. Nature of the test: CES3 expression in Fuzzy rat epidermal split after 8 days of topical treatment, Affymetrix transcriptome analysis. The note with it: topical 1% once a day for 8 days, female FUZZY rat. How it is done: The studies are carried out in female Fuzzy rats (Hsd: FUZZY-fz) 10 weeks old at the beginning of the study. The animals are treated at a dose of 1% (PPARg agonist Rosiglitazone in solution in acetone) once a day for 8 days. Two hours after the final treatment, the animals are sacrificed by euthanasia and the skin on the back is removed. After incubation in […], the epidermis carrying the sebaceous glands is detached from the dermis (epidermal split). After grinding of the samples, the mRNA is prepared using Qiagen columns, in accordance with the suppliers' instructions. The material thus prepared is subjected to large-scale transcriptome analysis on an Affymetrix platform. The data are subsequently standardized and, after statistical analysis, the results produced are expressed in arbitrary expression units (see below) accompanied, for each piece of data, by a statistical value for presence of the transcript (presence=1; absence=0).

For `CN(CCOc1ccc(CC2SC(=O)NC2=O)cc1)c1ccccn1` (stereo not shown) [A, 5-{4-[2-(methylpyridin-2-ylamino)ethoxy]benzyl}thiazolidine-2,4-dione], in the test on CES1, the “CES1 Relative induction - kinetics (hours): 0” value was determined as 1, the “CES1 Relative induction - kinetics (hours): 8” value was found to be 1.93, the “CES1 Relative induction - kinetics (hours): 24” value is reported as 1.01 and the “CES1 Relative induction - kinetics (hours): 48” value was 0.45. In addition, in the test on CES1, the “CES1 Relative induction - kinetics (hours): 96” value is 0.13. In addition, in the test with CES3 [1], the “CES3 Relative induction - kinetics (hours): 0” value is 1, the “CES3 Relative induction - kinetics (hours): 8” value is 1.72, the “CES3 Relative induction - kinetics (hours): 24” value is given as 0.46 and the “CES3 Relative induction - kinetics (hours): 48” value was determined as 0.22. For the same compound, in the test with CES3 [1], the “CES3 Relative induction - kinetics (hours): 96” value amounted to 0.07.

For `CCCCCCCNC(=O)N(C)c1cccc(-c2ccc(C[C@H](OCC)C(=O)O)cc2)n1` [C, (S)-2-ethoxy-3-{4-[6-(3-heptyl-1-methylureido)pyridin-2-yl]phenyl}propionic acid], in the test on CES1, the “CES1 Relative induction - kinetics (hours): 0” value is 1, the “CES1 Relative induction - kinetics (hours): 8” value turned out to be 0.55, the “CES1 Relative induction - kinetics (hours): 24” value was 0.38 and the “CES1 Relative induction - kinetics (hours): 48” value is 0.04. The “CES1 Relative induction - kinetics (hours): 96” value with CES1 is 0.03. Further, in the test with CES3 [1], the “CES3 Relative induction - kinetics (hours): 0” value worked out at 1, the “CES3 Relative induction - kinetics (hours): 8” value is listed as 0.33, the “CES3 Relative induction - kinetics (hours): 24” value is listed as 0.12 and the “CES3 Relative induction - kinetics (hours): 48” value amounted to 0.02. For the same compound, in the test with CES3 [1], the “CES3 Relative induction - kinetics (hours): 96” value is recorded as 0.00.

On to `CN(CCOc1ccc(CC2SC(=O)NC2=O)cc1)c1ccccn1` (stereo not shown) [Rosiglitazone], for which the “Significance of the expression after treatment with 1% Rosiglitazone (presence =1, absence =0)” value with CES3 [2] (control condition 1) came out at 0. Moreover, the “Expression after treatment with 1% Rosiglitazone (CES3, 1370363_at)” value in the test on CES3 [2] (control condition 443) is 15 arbitrary expression units.
